{
  "source": "patent US8759051B2",
  "about": "“Control of contaminant microorganisms in fermentation processes with peroxygen-releasing compounds” (E I du Pont de Nemours and Company, priority 2010, dated 2014)",
  "key": {"[1]": {"system": "lactic acid bacteria (LAB)", "assay": "Inactivation of LAB in molasses at pH 4.2 and 5.4 (Examples 2 and 3)", "type": "cell-based", "experimental": "Molasses (B&G Foods, Inc., Roseland, N.J.) was diluted 1 to 3.1 with water and sterilized as in Example 1. The prepared molasses was then divided into two lots and pH-adjusted using sulfuric acid to approximately pH 4.2 and 5.4, respectively. Cultures of LAB were prepared as in Example 1 and inoculated into the molasses to give approximately 1×10^6 CFU/ml. Sodium percarbonate (Alfa Aesar, Ward Hill, Mass.) was added to give 250, 500, and 750 ppm. […] Levels of LAB were enumerated by dilution and plating onto the surface of MRS agar followed by incubation at 32° C. LAB were enumerated at approximately 2 and 24 hours after the addition of sodium percarbonate.\nMolasses was prepared as above and adjusted to pH 4.2 and 5.4 using sulfuric acid. Cultures of lactic acid bacteria were prepared as indicated in Example 1 and inoculated into the molasses to give approximately 10E6 CFU/ml. Levels of bacteria were confirmed by plating serial dilutions of the inoculated molasses onto the surface of MRS agar plates as in Example 1. Calcium peroxide was added at the levels indicated. Bacterial levels were enumerated at 2 and 24 hours following addition as described above."}, "[2]": {"assay": "Stability of peroxygen-releasing compounds during storage at 40° C., iodometric titration of hydrogen peroxide (Example 4)", "type": "physicochemical", "experimental": "A dry oven was used to store samples of the peroxygen-releasing compounds at 40° C. The oven was allowed to equilibrate overnight. Two-gram duplicate samples of each of the following peroxygen-releasing compounds were dispensed into aluminum weighing dishes: sodium percarbonate (Alfa Aesar, Ward Hill, Mass.), sodium percarbonate FB 400 (Solvay Chemicals, Inc., Houston, Tex.), sodium percarbonate FB […] (Solvay Chemicals, Inc.), calcium peroxide (Sigma-Aldrich Co., St. […] After six days, samples were analyzed for levels of hydrogen peroxide using standard iodometric titration."}, "[3]": {"system": "lactic acid bacteria (LAB)", "assay": "Inactivation of LAB in dilute molasses at pH 5.0 in the presence of yeast Ethanol Red (Example 5)", "type": "cell-based", "experimental": "Cultures of lactic acid bacteria (LAB) were prepared as in Example 1 above. Molasses was diluted 1:3.1 with water as in previous examples. The fermenting yeast Ethanol Red was cultured as in example 1. Populations of lactic acid bacteria and yeasts were determined by dilution plating on MRS agar and YPD agar, respectively. Overnight cultures of LAB were mixed to prepare a bacterial cocktail and inoculated into molasses (diluted 1:3.1 with water) adjusted to pH 5.0 to give approximately 6.11 Log CFU/ml. Cultures of yeasts were added to each tube at a concentration of approximately 6.80 Log CFU/ml. […] The amount of UHP added was 1450 ppm. The amount of percarbonate added was 1812 ppm. Tubes were then incubated at 32° C. with agitation. […] Amphotericin inhibits the growth of yeast, facilitating enumeration of bacteria only."}, "[4]": {"settings": "before storage, duplicate samples"}, "[5]": {"settings": "storage at 40° C. in dry oven, day 6, duplicate samples"}, "[6]": {"settings": "storage at 40° C. in dry oven, day 14, duplicate samples"}},
  "note": "Where “and” joins values, the source holds several entries; their conditions need not be identical. Identical values can stand only once. Like-named read-outs stand apart in the source and are kept apart here.",
  "data": [
    {"smiles": "[Ca+2].[O-][O-]", "note": "[Calcium peroxide, calcium peroxide]", "values": [
      {"measurement": "CFU/ml LAB at hour indicated", "setting": "[1]; molasses at pH 4.2, 197 ppm (69 ppm as H2O2), hour 2", "result": "2.33 × 10^6 CFU/ml"},
      {"measurement": "CFU/ml LAB at hour indicated", "setting": "[1]; molasses at pH 4.2, 197 ppm (69 ppm as H2O2), hour 24", "result": "4.25 × 10^6 CFU/ml"},
      {"measurement": "CFU/ml LAB at hour indicated", "setting": "[1]; molasses at pH 4.2, 393 ppm (138 ppm as H2O2), hour 2", "result": "1.22 × 10^6 CFU/ml"},
      {"measurement": "CFU/ml LAB at hour indicated", "setting": "[1]; molasses at pH 4.2, 393 ppm (138 ppm as H2O2), hour 24", "result": "1.00 × 10^1 CFU/ml"},
      {"measurement": "CFU/ml LAB at hour indicated", "setting": "[1]; molasses at pH 4.2, 590 ppm (207 ppm as H2O2), hour 2", "result": "4.70 × 10^5 CFU/ml"},
      {"measurement": "CFU/ml LAB at hour indicated", "setting": "[1]; molasses at pH 4.2, 590 ppm (207 ppm as H2O2), hour 24", "result": "<10", "unit": "CFU/ml"},
      {"measurement": "CFU/ml LAB at hour indicated", "setting": "[1]; molasses at pH 5.4, 197 ppm (69 ppm as H2O2), hour 2", "result": "8.90 × 10^5 CFU/ml"},
      {"measurement": "CFU/ml LAB at hour indicated", "setting": "[1]; molasses at pH 5.4, 197 ppm (69 ppm as H2O2), hour 24", "result": "4.00 × 10^4 CFU/ml"},
      {"measurement": "CFU/ml LAB at hour indicated", "setting": "[1]; molasses at pH 5.4, 393 ppm (138 ppm as H2O2), hour 2", "result": "5.00 × 10^2 CFU/ml"},
      {"measurement": "CFU/ml LAB at hour indicated", "setting": "[1]; molasses at pH 5.4, 393 ppm (138 ppm as H2O2), hour 24", "result": "below the detection limit"},
      {"measurement": "CFU/ml LAB at hour indicated", "setting": "[1]; molasses at pH 5.4, 393 ppm (138 ppm as H2O2), hour 24, listed as Calcium percarbonate", "result": "<10", "unit": "CFU/ml"},
      {"measurement": "CFU/ml LAB at hour indicated", "setting": "[1]; molasses at pH 5.4, 590 ppm (207 ppm as H2O2), hour 2", "result": "8.0×10^4 CFU/ml"},
      {"measurement": "CFU/ml LAB at hour indicated", "setting": "[1]; molasses at pH 5.4, 590 ppm (207 ppm as H2O2), hour 2, listed as Calcium percarbonate", "result": "8.00 × 10^4 CFU/ml"},
      {"measurement": "CFU/ml LAB at hour indicated", "setting": "[1]; molasses at pH 5.4, 590 ppm (207 ppm as H2O2), hour 24", "result": "<10", "unit": "CFU/ml"},
      {"measurement": "reductions in LAB", "setting": "[1]; molasses pH 4.2, 197 ppm calcium peroxide, 2 hour", "result": "only slight reductions"},
      {"measurement": "reduction of LAB", "setting": "[1]; molasses pH 4.2, 197 ppm calcium peroxide, 24 hours", "result": "approximately 1 log"},
      {"measurement": "reductions in LAB", "setting": "[1]; molasses pH 4.2, 393 ppm calcium peroxide, 2 hour", "result": "only slight reductions"},
      {"measurement": "reduction of the population of LAB", "setting": "[1]; molasses pH 4.2, 393 ppm calcium peroxide, 24 hours", "result": "more than 6 log units"},
      {"measurement": "reduction of the population of LAB", "setting": "[1]; molasses pH 4.2, 590 ppm calcium peroxide, 2 hour", "result": "approximately 1 log"},
      {"measurement": "reduction of the population of LAB", "setting": "[1]; molasses pH 4.2, 590 ppm calcium peroxide, 24 hours", "result": "more than 6 log units"},
      {"measurement": "% Remaining H2O2 Day 0", "setting": "[2]", "result": 100, "unit": "%"},
      {"measurement": "% Remaining H2O2 Day 6", "setting": "[2]", "result": 97, "unit": "%"},
      {"measurement": "% Remaining H2O2 Day 14", "setting": "[2]", "result": 97, "unit": "%"},
      {"measurement": "% H2O2 Day 0", "setting": "[2]; [4]", "result": "34.71% and 34.73%"},
      {"measurement": "% H2O2 Day 6", "setting": "[2]; [5]", "result": "33.66% and 33.60%"},
      {"measurement": "% H2O2 Day 14", "setting": "[2]; [6]", "result": "33.62% and 33.57%"},
      {"measurement": "relative hydrogen peroxide retained during storage", "setting": "[2]; storage at 40° C., day not given", "result": 97, "unit": "%"}
    ]},
    {"smiles": "[Mg+2].[O-][O-]", "note": "[Magnesium peroxide, magnesium peroxide]", "values": [
      {"measurement": "% Remaining H2O2 Day 0", "setting": "[2]", "result": 100, "unit": "%"},
      {"measurement": "% Remaining H2O2 Day 6", "setting": "[2]", "result": 100, "unit": "%"},
      {"measurement": "% H2O2 Day 0", "setting": "[2]; [4]", "result": "10.66% and 10.72%"},
      {"measurement": "% H2O2 Day 6", "setting": "[2]; [5]", "result": "10.66% and 10.68%"},
      {"measurement": "% H2O2 Day 14", "setting": "[2]; [6]", "result": "10.64% and 10.65%"}
    ]},
    {"smiles": "O=C([O-])[O-].O=C([O-])[O-].OO.OO.OO.[Na+].[Na+].[Na+].[Na+]", "note": "[Sodium percarbonate (FB 400), sodium percarbonate]", "values": [
      {"measurement": "% Remaining H2O2 Day 0", "setting": "[2]", "result": 100, "unit": "%"},
      {"measurement": "% Remaining H2O2 Day 6", "setting": "[2]", "result": 96, "unit": "%"},
      {"measurement": "% Remaining H2O2 Day 14", "setting": "[2]", "result": 96, "unit": "%"},
      {"measurement": "% H2O2 Day 0", "setting": "[2]; [4]", "result": "23.81% and 23.66%"},
      {"measurement": "% H2O2 Day 6", "setting": "[2]; [5]", "result": "22.80% and 22.74%"},
      {"measurement": "% H2O2 Day 14", "setting": "[2]; [6]", "result": "22.80% and 22.67%"}
    ]},
    {"smiles": "O=C([O-])[O-].O=C([O-])[O-].OO.OO.OO.[Na+].[Na+].[Na+].[Na+]", "note": "[Sodium percarbonate (FB 400C), sodium percarbonate]", "values": [
      {"measurement": "% Remaining H2O2 Day 0", "setting": "[2]", "result": 100, "unit": "%"},
      {"measurement": "% Remaining H2O2 Day 14", "setting": "[2]", "result": 96, "unit": "%"},
      {"measurement": "% H2O2 Day 0", "setting": "[2]; [4]", "result": "26.34% and 26.25%"},
      {"measurement": "% H2O2 Day 6", "setting": "[2]; [5]", "result": "25.37% and 25.45%"},
      {"measurement": "% H2O2 Day 14", "setting": "[2]; [6]", "result": "25.35% and 25.27%"}
    ]},
    {"smiles": "NC(N)=O.OO", "note": "[Urea hydrogen peroxide, urea hydrogen peroxide, reference compound]", "values": [
      {"measurement": "% H2O2 Day 0", "setting": "[2]; [4]", "result": "34.53% and 34.56%"},
      {"measurement": "% Remaining H2O2 Day 0", "setting": "[2]; [4]", "result": 100, "unit": "%"},
      {"measurement": "% H2O2 Day 0", "setting": "[2]; before storage, duplicate samples, listed as urea hydrogen peroxide", "result": "approximately 35%"},
      {"measurement": "% H2O2 Day 6", "setting": "[2]; [5]", "result": "0.24% and 0.25%"},
      {"measurement": "% Remaining H2O2 Day 6", "setting": "[2]; [5]", "result": "<1", "unit": "%"},
      {"measurement": "% H2O2 Day 6", "setting": "[2]; storage at 40° C. in dry oven, day 6, duplicate samples, listed as urea hydrogen peroxide", "result": "below 1%"},
      {"measurement": "% H2O2 Day 14", "setting": "[2]; [6]", "result": 0.08, "unit": "%"},
      {"measurement": "% Remaining H2O2 Day 14", "setting": "[2]; [6]", "result": 0, "unit": "%"},
      {"measurement": "stability during storage (in words)", "setting": "[2]; storage at 40° C., 6 and 14 days", "result": "not stable during storage"},
      {"measurement": "reduction of the population of LAB", "setting": "[3]; 500 ppm as H2O2, 2 hours of incubation at 32° C., in presence of yeast", "result": 3, "unit": "log units"},
      {"measurement": "Log CFU/mL of LAB at hour indicated", "setting": "[3]; 500 ppm as H2O2, hour 2, molasses pH 5.0, yeast approx. 6.80 Log CFU/ml, 32° C.", "result": 3.36, "unit": "Log CFU/mL"}
    ]}
  ]
}
